Common to all, as to conditions: 11-point 3-fold dilution, qPCR readout
For orientation: Real-time PCR tracks product formation cycle by cycle.

One assay deals with T1, FGFR3 (Homo sapiens, UniProt P22607).
T1 construct: made in house; host or cells: E. coli host derived from BL21, infected with T7 phage
Put plainly: Kinase binding assay (Kd), FGFR3. The method, then: (§1) Kinase-tagged T7 phage strains were prepared in an E. coli host derived from the BL21 strain. E. coli were grown to log-phase and infected with T7 phage and incubated with shaking at 32° C. until lysis. The lysates were centrifuged and filtered to remove cell debris. Streptavidin-coated magnetic beads were treated with biotinylated small molecule ligands for 30 minutes at room temperature to generate affinity resins for kinase assays. The liganded beads were blocked with excess biotin and washed with blocking buffer SeaBlock (Pierce), 1% BSA, 0.05% Tween 20, 1 mM DTT to remove unbound ligand and to reduce non-specific binding. Binding reactions were assembled by combining kinases, liganded affinity beads, and test compounds in 1× binding buffer (20% SeaBlock, 0.17×PBS, 0.05% Tween 20, 6 mM DTT).
(§2) Test compounds were prepared as 111X stocks in 100% DMSO. Kds were determined using an 11-point 3-fold compound dilution series with three DMSO control points. All compounds for Kd measurements are distributed by acoustic transfer (non-contact dispensing) in 100% DMSO. The compounds were then diluted directly into the assays such that the final concentration of DMSO was 0.9%. All reactions performed in polypropylene 384-well plate. Each was a final volume of 0.02 ml. The assay plates were incubated at room temperature with shaking for 1 hour and the affinity beads were washed with wash buffer (lx PBS, 0.05% Tween 20). The beads were then re-suspended in elution buffer (lx PBS, 0.05% Tween 20, 0.5 μM non-biotinylated affinity ligand) and incubated at room temperature with shaking for 30 minutes. The kinase concentration in the eluates was measured by qPCR.
(§3) Binding constants were calculated with a standard dose-response curve using the Hill equation: […]
(§4) The Hill Slope was set to −1. Curves were fitted using a non-linear least square fit with the Levenberg-Marquardt algorithm.

Another assay has as its target T2, FGFR4 (Homo sapiens, UniProt P22455).
T2 construct: made in house; host or cells: E. coli host derived from BL21, infected with T7 phage
Put plainly: Kinase binding assay (Kd), FGFR4. Here is the method: as §1, §2, §3, §4

The next assay deals with T3, FGFR2 (Homo sapiens, UniProt P21802).
T3 construct: made in house; host or cells: E. coli host derived from BL21, infected with T7 phage
Kind of assay: Kinase binding assay (Kd), FGFR2. The method, then:
as §1, §2, §3, §4

The target in another assay is T4, FGFR1 (Homo sapiens, UniProt P11362).
T4 construct: made in house; host or cells: E. coli host derived from BL21, infected with T7 phage
Kind of assay: Kinase binding assay (Kd), FGFR1. Here is the method: as §1, §2, §3, §4

The target of another assay is T5, FGFR3 (V555M) (Homo sapiens, UniProt P22607, V555M).
T5 construct: made in house; host or cells: E. coli host derived from BL21, infected with T7 phage
Put plainly: Kinase binding assay (Kd), FGFR3 (V555M). Here is the method:
as §1, §2, §3, §4

T5 sequence (P22607 23-806 V555M): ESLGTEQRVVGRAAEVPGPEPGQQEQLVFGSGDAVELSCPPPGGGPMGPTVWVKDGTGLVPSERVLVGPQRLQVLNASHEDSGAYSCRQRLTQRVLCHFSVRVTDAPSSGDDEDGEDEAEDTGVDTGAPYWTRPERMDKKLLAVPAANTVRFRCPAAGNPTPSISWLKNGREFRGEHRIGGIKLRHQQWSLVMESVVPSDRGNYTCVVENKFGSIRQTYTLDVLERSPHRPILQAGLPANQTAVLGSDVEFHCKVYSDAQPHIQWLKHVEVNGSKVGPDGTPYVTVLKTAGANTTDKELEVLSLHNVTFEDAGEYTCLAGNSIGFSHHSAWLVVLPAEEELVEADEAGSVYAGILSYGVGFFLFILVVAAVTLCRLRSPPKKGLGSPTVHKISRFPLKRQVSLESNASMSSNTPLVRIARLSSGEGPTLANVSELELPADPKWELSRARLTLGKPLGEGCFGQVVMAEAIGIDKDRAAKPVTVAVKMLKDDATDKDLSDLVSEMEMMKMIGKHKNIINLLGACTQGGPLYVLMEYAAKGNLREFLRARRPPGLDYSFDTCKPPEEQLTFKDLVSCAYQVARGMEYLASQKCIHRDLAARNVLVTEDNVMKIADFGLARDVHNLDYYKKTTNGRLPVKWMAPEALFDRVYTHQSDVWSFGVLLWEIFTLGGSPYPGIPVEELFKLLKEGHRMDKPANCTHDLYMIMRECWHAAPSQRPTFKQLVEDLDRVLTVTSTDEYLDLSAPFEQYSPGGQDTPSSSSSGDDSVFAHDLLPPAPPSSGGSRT
T2 sequence (P22455 22-802): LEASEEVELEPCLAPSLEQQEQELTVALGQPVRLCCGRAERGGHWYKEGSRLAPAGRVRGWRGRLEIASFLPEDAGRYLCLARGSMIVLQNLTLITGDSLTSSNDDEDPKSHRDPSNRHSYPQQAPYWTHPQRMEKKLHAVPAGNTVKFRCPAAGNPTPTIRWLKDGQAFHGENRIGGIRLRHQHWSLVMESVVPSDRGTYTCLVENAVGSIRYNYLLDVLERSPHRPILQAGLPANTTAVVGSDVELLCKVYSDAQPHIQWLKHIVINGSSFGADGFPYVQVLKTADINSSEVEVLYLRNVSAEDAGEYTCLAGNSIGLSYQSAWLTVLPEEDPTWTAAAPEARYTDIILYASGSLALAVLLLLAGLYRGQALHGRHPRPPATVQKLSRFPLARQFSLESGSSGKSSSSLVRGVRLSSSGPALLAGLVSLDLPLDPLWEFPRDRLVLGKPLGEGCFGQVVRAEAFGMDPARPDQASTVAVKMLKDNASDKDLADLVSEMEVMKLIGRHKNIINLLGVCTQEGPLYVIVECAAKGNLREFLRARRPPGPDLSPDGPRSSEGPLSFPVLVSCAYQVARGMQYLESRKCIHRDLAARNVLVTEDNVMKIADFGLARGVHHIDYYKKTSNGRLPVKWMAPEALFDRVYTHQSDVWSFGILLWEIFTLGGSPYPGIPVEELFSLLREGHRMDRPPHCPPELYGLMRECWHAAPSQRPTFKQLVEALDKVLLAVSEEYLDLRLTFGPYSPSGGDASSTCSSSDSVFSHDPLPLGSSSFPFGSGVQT
T1 sequence (P22607 23-806): as the sequence (P22607 23-806 V555M) above, with M533V counted along it
T3 sequence (P21802 22-821): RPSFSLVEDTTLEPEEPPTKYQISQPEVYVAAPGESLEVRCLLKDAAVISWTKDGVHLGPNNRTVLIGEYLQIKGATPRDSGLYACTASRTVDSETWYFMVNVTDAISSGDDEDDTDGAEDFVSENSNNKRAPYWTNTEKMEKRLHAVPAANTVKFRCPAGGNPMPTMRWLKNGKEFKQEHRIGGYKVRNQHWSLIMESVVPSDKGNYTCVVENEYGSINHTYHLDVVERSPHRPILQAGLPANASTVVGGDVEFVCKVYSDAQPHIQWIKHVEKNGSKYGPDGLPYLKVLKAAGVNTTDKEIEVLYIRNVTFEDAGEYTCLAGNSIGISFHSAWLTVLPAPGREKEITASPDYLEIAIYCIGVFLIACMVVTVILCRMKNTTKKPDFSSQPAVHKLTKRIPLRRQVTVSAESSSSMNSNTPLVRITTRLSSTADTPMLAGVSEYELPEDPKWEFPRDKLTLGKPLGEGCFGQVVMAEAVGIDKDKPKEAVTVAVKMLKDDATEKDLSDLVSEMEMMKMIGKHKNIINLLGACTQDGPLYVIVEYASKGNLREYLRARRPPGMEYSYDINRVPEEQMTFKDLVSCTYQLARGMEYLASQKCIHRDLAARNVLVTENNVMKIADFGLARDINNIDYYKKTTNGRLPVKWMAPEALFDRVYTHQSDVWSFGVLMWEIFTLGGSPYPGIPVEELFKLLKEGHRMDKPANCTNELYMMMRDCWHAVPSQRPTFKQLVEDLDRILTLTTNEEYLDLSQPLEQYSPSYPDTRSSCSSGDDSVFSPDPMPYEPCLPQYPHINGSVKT
T4 sequence (P11362 22-822): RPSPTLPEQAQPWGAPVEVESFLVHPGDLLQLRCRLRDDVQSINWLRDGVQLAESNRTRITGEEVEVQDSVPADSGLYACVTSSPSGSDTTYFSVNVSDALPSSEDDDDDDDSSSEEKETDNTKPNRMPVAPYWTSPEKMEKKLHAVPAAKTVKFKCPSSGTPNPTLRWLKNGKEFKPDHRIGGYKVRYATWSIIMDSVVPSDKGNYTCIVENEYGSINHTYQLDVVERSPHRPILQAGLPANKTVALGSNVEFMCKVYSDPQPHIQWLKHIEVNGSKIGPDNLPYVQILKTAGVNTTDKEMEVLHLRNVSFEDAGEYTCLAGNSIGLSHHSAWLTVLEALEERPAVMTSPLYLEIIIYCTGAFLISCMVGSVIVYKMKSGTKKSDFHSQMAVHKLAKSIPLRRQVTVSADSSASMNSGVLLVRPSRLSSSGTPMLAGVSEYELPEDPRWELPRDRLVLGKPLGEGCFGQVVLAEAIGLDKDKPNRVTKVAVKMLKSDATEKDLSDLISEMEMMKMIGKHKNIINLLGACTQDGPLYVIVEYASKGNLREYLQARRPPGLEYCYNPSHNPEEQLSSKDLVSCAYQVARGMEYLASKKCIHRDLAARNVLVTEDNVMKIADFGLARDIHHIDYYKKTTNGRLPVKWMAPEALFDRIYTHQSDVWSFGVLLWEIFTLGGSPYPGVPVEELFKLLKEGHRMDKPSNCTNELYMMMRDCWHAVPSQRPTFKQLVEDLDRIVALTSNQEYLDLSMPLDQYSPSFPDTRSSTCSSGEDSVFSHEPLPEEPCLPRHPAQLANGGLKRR

Consider `Cc1cnc(Nc2ccc(N=S(C)(C)=O)cc2)nc1-c1c[nH]c2cc(F)ccc12` [Example 29, N-[4-[[dimethyl(oxo)-λ^6-sulfanylidene]amino]phenyl]-4-(6-fluoro-1H-indol-3-yl)-5-methyl-pyrimidin-2-amine], for which the Kd on FGFR3 was 21 nM; at FGFR4, 210 nM; on FGFR2 it was 46 nM; at FGFR1, 15 nM; on FGFR3 (V555M) it was 4 nM.

For `COc1ccc2c(-c3nc(Nc4ccc(N=S(C)(C)=O)cc4)ncc3C)c[nH]c2c1` [Example 30, N-[4-[[dimethyl(oxo)-λ^6-sulfanylidene]amino]phenyl]-4-(6-methoxy-1H-indol-3-yl)-5-methyl-pyrimidin-2-amine], the dissociation constant Kd at FGFR3 was 35 nM; on FGFR4 it was 190 nM; at FGFR2, 41 nM; at FGFR1, 27 nM; on FGFR3 (V555M), 2 nM.

As for `COc1cc(Nc2ncc(C)c(-c3c[nH]c4c(F)cccc34)n2)ccc1N=S(C)(C)=O` [Example 32, N-[4-[[dimethyl(oxo)-λ^6-sulfanylidene]amino]-3-methoxy-phenyl]-4-(7-fluoro-1H-indol-3-yl)-5-methyl-pyrimidin-2-amine], the Kd worked out at 3 nM at FGFR3; 52 nM at FGFR4; 3 nM at FGFR2; 2 nM on FGFR1; 1 nM at FGFR3 (V555M).

Consider `COc1cc(Nc2ncc(C)c(-c3c[nH]c4c(OC)cccc34)n2)ccc1N=S(C)(C)=O` [Example 33, N-[4-[[dimethyl(oxo)-λ^6-sulfanylidene]amino]-3-methoxy-phenyl]-4-(7-methoxy-1H-indol-3-yl)-5-methyl-pyrimidin-2-amine], for which the dissociation constant Kd at FGFR3 was 19 nM; at FGFR4, 120 nM; at FGFR2 it was 6 nM; on FGFR1 it was 4 nM; at FGFR3 (V555M), 2 nM.

Take `Cc1ccc2c(-c3nc(Nc4ccc(N5CCS(=N)(=O)CC5)cc4)ncc3C)c[nH]c2c1` [Example 34, N-[4-(1-imino-1-oxo-1,4-thiazinan-4-yl)phenyl]-5-methyl-4-(6-methyl-1H-indol-3-yl)pyrimidin-2-amine]: the Kd at FGFR3 stood at 30 nM; at FGFR4, 230 nM; on FGFR2 it was 39 nM; on FGFR1 it was 14 nM; at FGFR3 (V555M), 2 nM.

Consider `COc1cc(N2CCS(=N)(=O)CC2)ccc1Nc1ncc(Cl)c(-c2c[nH]c3ccccc23)n1` [Example 35, 5-Chloro-N-[4-(1-imino-1-oxo-1,4-thiazinan-4-yl)-2-methoxy-phenyl]-4-(1H-indol-3-yl)pyrimidin-2-amine], for which the Kd on FGFR3 worked out at 130 nM; at FGFR4, 86 nM; at FGFR2, 200 nM; at FGFR1 it was 72 nM; on FGFR3 (V555M), 9 nM.

As for `COc1cc(S(C)(=N)=O)ccc1Nc1ncc(Cl)c(-c2c[nH]c3ccccc23)n1` (stereo not drawn) [Example 36, 5-Chloro-4-(1H-indol-3-yl)-N-[2-methoxy-4-(methylsulfonimidoyl)-phenyl]pyrimidin-2-amine], the Kd on FGFR3 is 89 nM; on FGFR4, 57 nM; on FGFR2 it was 67 nM; at FGFR1, 72 nM; on FGFR3 (V555M) it was 4 nM.

Consider `CN=S(C)(=O)c1ccc(Nc2ncc(Cl)c(-c3c[nH]c4ccccc34)n2)c(OC)c1` (stereo not drawn) [Example 37, 5-Chloro-N-[4-(N,S-dimethylsulfonimidoyl)-2-methoxy-phenyl]-4-(1H-indol-3-yl)pyrimidin-2-amine], for which the equilibrium dissociation constant (Kd) was 290 nM at FGFR3; 120 nM at FGFR4; 1200 nM at FGFR2; 500 nM on FGFR1; 28 nM at FGFR3 (V555M).

For `CCN1CCS(=O)(=Nc2ccc(Nc3ncc(Cl)c(-c4c[nH]c5ccccc45)n3)c(OC)c2)CC1` [Example 39, 5-Chloro-4-(1H-indol-3-yl)-N-[2-methoxy-4-[(4-ethyl-1-oxo-1,4-thiazinan-1-ylidene)-amino]phenyl]pyrimidin-2-amine], the dissociation constant Kd at FGFR3 stood at 57 nM; on FGFR4, 66 nM; at FGFR2, 170 nM; on FGFR1, 58 nM; on FGFR3 (V555M), 6 nM.

For orientation: Kd means the free concentration of one partner at which half of the binding sites on the other are occupied at equilibrium, for simple one-to-one binding.

Source of the values: US20230115945A1, “AMINOPYRIMIDINE COMPOUNDS” (TYRA BIOSCIENCES, INC., priority 2019, published 2023).
